Where two headings read alike, the source gives them in different places.
Target: T1, human B-Raf (Homo sapiens, UniProt P15056)
T1 construct: Flag; GST; made in house; host or cells: Sf9 insect cells (B-Raf); E. coli (MEK1-GST)
Assay: B-Raf Kinase to MEK1 ELISA
Format: biochemical
Settings: for IC50: median, cpd concentrations from 10 μM to 30 nM in half log dilutions, read-out: Median IC50; for inhibition at 10 µM: read-out: % Inhib./10 uM
Outline: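 Flag/GST-tagged human B-Raf (Sf9, ~20 ng/point) phosphorylates non-active GST-MEK1 (50 nM final) with ATP and MgCl2 in MOPS pH 7.2 buffer, 60 min at RT. Product is captured on anti-GST plates; MEK1 pSer217/221 is read by phospho-antibody plus europium conjugate (DELFIA).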

T1 sequence (P15056 whole entry): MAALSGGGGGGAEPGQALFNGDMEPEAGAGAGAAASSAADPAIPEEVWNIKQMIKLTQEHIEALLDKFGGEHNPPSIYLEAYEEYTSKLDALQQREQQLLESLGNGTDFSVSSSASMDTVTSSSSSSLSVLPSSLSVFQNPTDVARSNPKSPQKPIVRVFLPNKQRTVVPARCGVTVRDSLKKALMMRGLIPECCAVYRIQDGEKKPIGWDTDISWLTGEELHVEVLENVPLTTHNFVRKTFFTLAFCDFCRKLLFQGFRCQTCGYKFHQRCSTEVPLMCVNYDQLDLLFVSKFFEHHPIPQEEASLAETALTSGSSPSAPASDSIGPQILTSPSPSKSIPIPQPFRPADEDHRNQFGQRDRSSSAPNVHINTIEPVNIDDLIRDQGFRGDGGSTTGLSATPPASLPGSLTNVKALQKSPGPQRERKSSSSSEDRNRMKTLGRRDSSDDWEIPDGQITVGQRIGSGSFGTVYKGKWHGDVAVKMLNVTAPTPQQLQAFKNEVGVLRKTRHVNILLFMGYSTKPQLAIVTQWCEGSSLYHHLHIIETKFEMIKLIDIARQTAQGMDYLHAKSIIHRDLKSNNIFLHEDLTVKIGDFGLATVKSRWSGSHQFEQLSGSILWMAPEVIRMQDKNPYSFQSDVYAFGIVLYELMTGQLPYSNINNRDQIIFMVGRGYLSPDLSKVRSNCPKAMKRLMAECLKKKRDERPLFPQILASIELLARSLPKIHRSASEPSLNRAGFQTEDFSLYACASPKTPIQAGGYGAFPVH

Compound | IC50 [µM] | inhibition at 10 µM [%] | inhibition at 10 µM (single point assay, 10 uM) [%]
CCOC(=O)c1cnn2c(-c3cccc(NC(=O)Cc4cccc(C)c4)c3)ccnc12 [Example 98, ethyl 7-(3-{[(3-methylphenyl)acetyl]amino}phenyl)pyrazolo[1,5-a]pyrimidine-3-carboxylate] | > 10 | 15 | –
CCOC(=O)c1cnn2c(-c3cccc(NC(=O)Cc4cc(C(F)(F)F)cc(C(F)(F)F)c4)c3)ccnc12 [Example 99, ethyl 7-[3-({[3,5-bis(trifluoromethyl)phenyl]acetyl}amino)phenyl]pyrazolo[1,5-a]pyrimidine-3-carboxylate] | > 10 | 13 | –
CCOC(=O)c1cnn2c(-c3cccc(NC(=O)Cc4ccc5c(c4)OCO5)c3)ccnc12 [Example 100, ethyl 7-{3-[(1,3-benzodioxol-5-ylacetyl)amino]phenyl}pyrazolo[1,5-a]pyrimidine-3-carboxylate] | > 10 | 2 | –
CCOC(=O)c1cnn2c(-c3cccc(NC(=O)Cc4ccc(OC)c(C)c4)c3)ccnc12 [Example 101, ethyl 7-(3-{[(4-methoxy-3-methylphenyl)acetyl]amino}phenyl)pyrazolo[1,5-a]pyrimidine-3-carboxylate] | > 10 | 0 | –
CCOC(=O)c1cnn2c(-c3cccc(NC(=O)Cc4c(F)ccc(F)c4F)c3)ccnc12 [Example 102, ethyl 7-(3-{[(2,3,6-trifluorophenyl)acetyl]amino}phenyl)pyrazolo[1,5-a]pyrimidine-3-carboxylate] | > 10 | 0 | –
CCOC(=O)c1cnn2c(-c3cc(NC(=O)c4ccc(C)c(C(F)(F)F)c4)ccc3[N+](=O)[O-])ccnc12 [Example 105, ethyl 7-(5-{[4-methyl-3-(trifluoromethyl)benzoyl]amino}-2-nitrophenyl)pyrazolo[1,5-a]pyrimidine-3-carboxylate] | > 10 | 37 | –
CCOC(=O)c1cnn2c(-c3ccc(Cl)c(NC(=O)c4ccc(C)c(C(F)(F)F)c4)c3)ccnc12 [Example 106, ethyl 7-(4-chloro-3-{[4-methyl-3-(trifluoromethyl)benzoyl]amino}phenyl)pyrazolo[1,5-a]pyrimidine-3-carboxylate] | > 10 | 2 | –
CCOC(=O)c1cnn2c(-c3ccc(OC)c(NC(=O)c4ccc(C)c(C(F)(F)F)c4)c3)ccnc12 [Example 107, ethyl 7-(4-methoxy-3-{[4-methyl-3-(trifluoromethyl)benzoyl]amino}phenyl)pyrazolo[1,5-a]pyrimidine-3-carboxylate] | > 10 | 0 | –
COCCCNC(=O)c1cnn2c(-c3cccc(NC(=O)Nc4ccc(Cl)c(C(F)(F)F)c4)c3)ccnc12 [Example 121, 7-{3-[({[4-chloro-3-(trifluoromethyl)phenyl]amino}carbonyl)amino]phenyl}-N-(3-methoxypropyl)pyrazolo[1,5-a]pyrimidine-3-carboxamide] | 0.19 | 92 | –

Further lines, results first:

IC50 [µM] | inhibition at 10 µM [%] | inhibition at 10 µM (single point assay, 10 uM) [%] | Compound
8.6 | 49 | – | CCOC(=O)c1cnn2c(-c3cccc(NC(=O)Cc4cccc(C(F)(F)F)c4)c3)ccnc12 [Example 97, ethyl 7-[3-({[3-(trifluoromethyl)phenyl]acetyl}amino)phenyl]pyrazolo[1,5-a]pyrimidine-3-carboxylate]
2.49 | 59 | – | CCOC(=O)c1cnn2c(-c3cccc(NC(=O)c4ccc(Cl)c(C(F)(F)F)c4)c3)ccnc12 [Example 103, ethyl 7-(3-{[4-chloro-3-(trifluoromethyl)benzoyl]amino}phenyl)pyrazolo[1,5-a]pyrimidine-3-carboxylate]
10.1 | – | 1 | CCOC(=O)c1cnn2c(-c3cccc(NC(=O)c4cc(C(F)(F)F)ccc4C)c3)ccnc12 [Example 104, ethyl 7-(3-{[2-methyl-5-(trifluoromethyl)benzoyl]amino}phenyl)pyrazolo[1,5-a]pyrimidine-3-carboxylate]
> 10 | 20 | – | CCOC(=O)c1cnn2c(-c3ccc(OCc4ccccc4)c(NC(=O)c4ccc(C)c(C(F)(F)F)c4)c3)ccnc12 [Example 108, ethyl 7-(4-(benzyloxy)-3-{[4-methyl-3-(trifluoromethyl)benzoyl]amino}phenyl)pyrazolo[1,5-a]pyrimidine-3-carboxylate]
> 10 | 24 | – | CN(C)CCCc1cc2nccc(-c3cccc(NC(=O)c4cccc(C(F)(F)F)c4)c3)n2n1 [Example 110, N-(3-{2-[3-(dimethylamino)propyl]pyrazolo[1,5-a]pyrimidin-7-yl}phenyl)-3-(trifluoromethyl)benzamide]
> 3 | 24 | – | O=C(Nc1cccc(-c2ccnc3cc(-c4ccccn4)nn23)c1)c1cccc(C(F)(F)F)c1 [Example 111, N-[3-(2-pyridin-2-ylpyrazolo[1,5-a]pyrimidin-7-yl)phenyl]-3-(trifluoromethyl)benzamide]
> 10 | 26 | – | Cc1cc2nccc(-c3cccc(NC(=O)c4cccc(C(F)(F)F)c4)c3)n2n1 [Example 112, N-[3-(2-methylpyrazolo[1,5-a]pyrimidin-7-yl)phenyl]-3-(trifluoromethyl)benzamide]
> 10 | 45 | – | O=C(Nc1cccc(-c2ccnc3cc(-c4ccco4)nn23)c1)c1cccc(C(F)(F)F)c1 [Example 113, N-{3-[2-(2-furyl)pyrazolo[1,5-a]pyrimidin-7-yl]phenyl}-3-(trifluoromethyl)benzamide]
> 10 | 24 | – | O=C(Nc1cccc(-c2ccnc3cc(-c4ccc(Cl)cc4)nn23)c1)c1cccc(C(F)(F)F)c1 [Example 115, N-{3-[2-(4-chlorophenyl)pyrazolo[1,5-a]pyrimidin-7-yl]phenyl}-3-(trifluoromethyl)benzamide]
> 10 | 31 | – | Cc1cc2nccc(-c3cccc(NC(=O)c4ccc(C)c(C(F)(F)F)c4)c3)n2n1 [Example 116, 4-methyl-N-[3-(2-methylpyrazolo[1,5-a]pyrimidin-7-yl)phenyl]-3-(trifluoromethyl)benzamide]
> 10 | 24 | – | Cc1ccc(C(=O)Nc2cccc(-c3ccnc4cc(-c5cccs5)nn34)c2)cc1C(F)(F)F [Example 117, 4-methyl-N-{3-[2-(2-thienyl)pyrazolo[1,5-a]pyrimidin-7-yl]phenyl}-3-(trifluoromethyl)benzamide]
> 10 | 22 | – | Cc1ccc(C(=O)Nc2cccc(-c3ccnc4cc(-c5ccc(Cl)cc5)nn34)c2)cc1C(F)(F)F [Example 118, N-{3-[2-(4-chlorophenyl)pyrazolo[1,5-a]pyrimidin-7-yl]phenyl}-4-methyl-3-(trifluoromethyl)benzamide]
> 10 | 29 | – | Cc1ccc(C(=O)Nc2cccc(-c3ccnc4cc(-c5ccccc5)nn34)c2)cc1C(F)(F)F [Example 119, 4-methyl-N-[3-(2-phenylpyrazolo[1,5-a]pyrimidin-7-yl)phenyl]-3-(trifluoromethyl)benzamide]
0.12 | 92 | – | O=C(Nc1cccc(-c2ccnc3c(C(=O)NCCCn4ccnc4)cnn23)c1)Nc1ccc(Cl)c(C(F)(F)F)c1 [Example 120, 7-{3-[({[4-chloro-3-(trifluoromethyl)phenyl]amino}carbonyl)amino]phenyl}-N-[3-(1H-imidazol-1-yl)propyl]pyrazolo[1,5-a]pyrimidine-3-carboxamide]

Reference: US20070219186A1, “Pyrazolo[1,5-A]pyrimidine derivatives and methods of use thereof” (priority 2006, published 2007)
